The values below are quoted from earlier work in PMC10323144, “Garbage in, garbage out: how reliable training data improved a virtual screening approach against SARS-CoV-2 MPro” (Frontiers in Pharmacology, 2023).

Square brackets hold non-standard residues; d marks the D form. Peptide text beside a SMILES is read from it. * marks the point of attachment. Nle = CCCC[CH](N)C(=O)O; Cbz = O=C(OCc1ccccc1)*

In the series the test system is MPro. Particulars: compiled from peer-reviewed sources (287 compounds) ref the 18 original articles; cited from earlier work.
Regarding `O=C(c1cc(=O)[nH]c2ccccc12)N1CCN(Cc2ccccc2)CC1` [BEN-DND-7e92b6ca-10], the “Class (MPro activity class)” value was 1 (Compounds with IC50 < 10 µM or with a percentage of enzyme inhibition >50% at 10 µM were labelled as ACTIVE).
Regarding `COC(=O)N[C@H](C(=O)N1CCC[C@H]1c1nc2cc([C@H]3CC[C@H](c4cc5nc([C@@H]6CCCN6C(=O)[C@@H](NC(=O)OC)[C@@H](C)OC)[nH]c5cc4F)N3c3cc(F)c(N4CCC(c5ccc(F)cc5)CC4)c(F)c3)c(F)cc2[nH]1)[C@@H](C)OC` [Pibrentasvir], the “Class (MPro activity class)” value is given as 0 (compounds with IC50 > 20 μM, percentage inhibition <80% at 20 µM or 50 μM, or percentage enzyme inhibition <50% at 10 µM were labelled as INACTIVE).
Turning to `C[C@H](NC(=O)/C(C#N)=C/c1cccc(Br)n1)c1ccccc1` [WP1066], the “Class (MPro activity class)” value is 0 (compounds with IC50 > 20 μM, percentage inhibition <80% at 20 µM or 50 μM, or percentage enzyme inhibition <50% at 10 µM were labelled as INACTIVE).
Regarding `O=c1sn(-c2cccc3ccccc23)c(=O)n1Cc1ccccc1` [Tideglusib], the “Class (MPro activity class)” value was 1 (Compounds with IC50 < 10 µM or with a percentage of enzyme inhibition >50% at 10 µM were labelled as ACTIVE).
As to `CC(C)(C)NC(=O)C(c1cccnc1)N(C(=O)c1ccco1)c1ccc(C(C)(C)C)cc1` (stereo not shown) [ALP-POS-c59291d4-6], the “Class (MPro activity class)” value is given as 1 (Compounds with IC50 < 10 µM or with a percentage of enzyme inhibition >50% at 10 µM were labelled as ACTIVE).
On to `CCOC(=O)C1=C[C@@H](OC(CC)CC)[C@H](NC(C)=O)[C@@H](N)C1` [Oseltamivir], for which the “Class (MPro activity class)” value is 0 (compounds with IC50 > 20 μM, percentage inhibition <80% at 20 µM or 50 μM, or percentage enzyme inhibition <50% at 10 µM were labelled as INACTIVE).
`CCCC(NC(=O)C(CC(C)C)NC(=O)OCc1ccccc1)C(=O)C(=O)NCc1ccccn1` (stereo not shown) [Calpain inhibitor XII]: the “Class (MPro activity class)” value is 1 (Compounds with IC50 < 10 µM or with a percentage of enzyme inhibition >50% at 10 µM were labelled as ACTIVE).
Regarding `NC[C@H]1O[C@H](O[C@H]2[C@H](O[C@@H]3O[C@H](CO)[C@@H](O)[C@H]3O)[C@@H](O)[C@H](N)C[C@@H]2N)[C@H](N)[C@@H](O)[C@@H]1O` [Ribostamycin], the “Class (MPro activity class)” value is recorded as 0 (compounds with IC50 > 20 μM, percentage inhibition <80% at 20 µM or 50 μM, or percentage enzyme inhibition <50% at 10 µM were labelled as INACTIVE).
With `COc1cnc(-n2cnc(C)n2)c2[nH]cc(C(=O)C(=O)N3CCN(C(=O)c4ccccc4)CC3)c12` [Temsavir], the “Class (MPro activity class)” value is 0 (compounds with IC50 > 20 μM, percentage inhibition <80% at 20 µM or 50 μM, or percentage enzyme inhibition <50% at 10 µM were labelled as INACTIVE).
Regarding `O=C(OCC(O)CO)c1ccccc1Nc1ccnc2cc(Cl)ccc12` (stereo not shown) [GLAFENINE], the “Class (MPro activity class)” value was 0 (compounds with IC50 > 20 μM, percentage inhibition <80% at 20 µM or 50 μM, or percentage enzyme inhibition <50% at 10 µM were labelled as INACTIVE).
`CC(C)CN(C[C@@H](O)[C@H](Cc1ccccc1)NC(=O)O[C@H]1CCOC1)S(=O)(=O)c1ccc(N)cc1` [Amprenavir]: the “Class (MPro activity class)” value is 0 (compounds with IC50 > 20 μM, percentage inhibition <80% at 20 µM or 50 μM, or percentage enzyme inhibition <50% at 10 µM were labelled as INACTIVE).
Turning to `Cn1c(=O)cc(N2CCC[C@@H](N)C2)n(Cc2cc(F)ccc2C#N)c1=O` [Trelagliptin], the “Class (MPro activity class)” value was 0 (compounds with IC50 > 20 μM, percentage inhibition <80% at 20 µM or 50 μM, or percentage enzyme inhibition <50% at 10 µM were labelled as INACTIVE).
`N#Cc1cccc(C2CN(C(=O)CCl)Cc3ccccc32)c1` (stereo not shown) [NIR-THE-c331be7a-2]: the “Class (MPro activity class)” value was 1 (Compounds with IC50 < 10 µM or with a percentage of enzyme inhibition >50% at 10 µM were labelled as ACTIVE).
`Nc1nc(NC2CC2)c2ncn([C@H]3C=C[C@@H](CO)C3)c2n1` [Abacavir]: the “Class (MPro activity class)” value is listed as 0 (compounds with IC50 > 20 μM, percentage inhibition <80% at 20 µM or 50 μM, or percentage enzyme inhibition <50% at 10 µM were labelled as INACTIVE).
Regarding `COCCc1ccc(Cl)cc1CN1CCN(C(=O)CCl)CC1` [MED-COV-4280ac29-37], the “Class (MPro activity class)” value is 1 (Compounds with IC50 < 10 µM or with a percentage of enzyme inhibition >50% at 10 µM were labelled as ACTIVE).
Regarding `C[C@]12CC[C@H]3[C@@H](CC[C@@]45O[C@@H]4C(O)=C(C#N)C[C@]35C)[C@@H]1CC[C@@H]2O` [Trilostane], the “Class (MPro activity class)” value is 0 (compounds with IC50 > 20 μM, percentage inhibition <80% at 20 µM or 50 μM, or percentage enzyme inhibition <50% at 10 µM were labelled as INACTIVE).
As to `CC(O)c1cc(C(=O)N[C@@H](C)Cn2ccc(-c3ccc(C#N)c(Cl)c3)n2)[nH]n1` (stereo partly shown) [DAROLUTAMIDE], the “Class (MPro activity class)” value was 0 (compounds with IC50 > 20 μM, percentage inhibition <80% at 20 µM or 50 μM, or percentage enzyme inhibition <50% at 10 µM were labelled as INACTIVE).
Turning to `O=C(C=Cc1ccc(O)c(O)c1)OC1C(O)CC(O)(C(=O)O)CC1O` (stereo not shown) [Cryptochlorogenic acid], the “Class (MPro activity class)” value is on record as 0 (compounds with IC50 > 20 μM, percentage inhibition <80% at 20 µM or 50 μM, or percentage enzyme inhibition <50% at 10 µM were labelled as INACTIVE).
On to `CCN(CCO)CCCC(C)Nc1ccnc2cc(Cl)ccc12` (stereo not shown) [Hydroxychloroquine], for which the “Class (MPro activity class)” value is 0 (compounds with IC50 > 20 μM, percentage inhibition <80% at 20 µM or 50 μM, or percentage enzyme inhibition <50% at 10 µM were labelled as INACTIVE).
As to `O=C(CNc1c(-c2ccccc2)nc2ccccn12)NN=Cc1cccc2ccccc12` [LASSBio-1615 (11)], the “Class (MPro activity class)” value is 0 (compounds with IC50 > 20 μM, percentage inhibition <80% at 20 µM or 50 μM, or percentage enzyme inhibition <50% at 10 µM were labelled as INACTIVE).
Consider `Nc1cc(C(F)(F)F)c(-c2nc(N3CCOCC3)nc(N3CCOCC3)n2)cn1` [BIMIRALISIB], for which the “Class (MPro activity class)” value is recorded as 0 (compounds with IC50 > 20 μM, percentage inhibition <80% at 20 µM or 50 μM, or percentage enzyme inhibition <50% at 10 µM were labelled as INACTIVE).
Turning to `CC(C)C[C@H](NC(=O)[C@@H](NC(=O)c1cccc(-c2ccccc2)n1)[C@@H](C)O)B(O)O` [delanzomib], the “Class (MPro activity class)” value is given as 0 (compounds with IC50 > 20 μM, percentage inhibition <80% at 20 µM or 50 μM, or percentage enzyme inhibition <50% at 10 µM were labelled as INACTIVE).
Turning to Maraviroc, the “Class (MPro activity class)” value was 0 (compounds with IC50 > 20 μM, percentage inhibition <80% at 20 µM or 50 μM, or percentage enzyme inhibition <50% at 10 µM were labelled as INACTIVE).
Take `O=C(CCl)N1CCN(S(=O)(=O)c2ccsc2)CC1` [MAT-POS-ee51dedd-2]: the “Class (MPro activity class)” value is 1 (Compounds with IC50 < 10 µM or with a percentage of enzyme inhibition >50% at 10 µM were labelled as ACTIVE).
For `Cc1cc2nc3c(=O)[nH]c(=O)nc-3n(C[C@H](O)[C@H](O)[C@H](O)CO)c2cc1C` [RIBOFLAVIN], the “Class (MPro activity class)” value is reported as 0 (compounds with IC50 > 20 μM, percentage inhibition <80% at 20 µM or 50 μM, or percentage enzyme inhibition <50% at 10 µM were labelled as INACTIVE).
As to `O=C(O)C(S)=Cc1c[nH]c2ccc(F)cc12` [PD151746], the “Class (MPro activity class)” value is 0 (compounds with IC50 > 20 μM, percentage inhibition <80% at 20 µM or 50 μM, or percentage enzyme inhibition <50% at 10 µM were labelled as INACTIVE).
Take `CCC(C)C1OC2(CCC1C)CC1CC(CC=C(C)C(OC3CC(OC)C(OC4CC(OC)C(O)C(C)O4)C(C)O3)C(C)C=CC=C3COC4C(O)C(C)=CC(C(=O)O1)C34O)O2` (stereo not shown) [Ivermectin]: the “Class (MPro activity class)” value is recorded as 0 (compounds with IC50 > 20 μM, percentage inhibition <80% at 20 µM or 50 μM, or percentage enzyme inhibition <50% at 10 µM were labelled as INACTIVE).
With `O=c1c(O)c(-c2cc(O)c(O)c(O)c2)oc2cc(O)cc(O)c12` [Myricetin], the “Class (MPro activity class)” value is 1 (Compounds with IC50 < 10 µM or with a percentage of enzyme inhibition >50% at 10 µM were labelled as ACTIVE).
As to `COc1cccc(N2CCN(C(=O)c3cc(=O)[nH]c4ccccc34)CC2)c1` [BEN-DND-7e92b6ca-12], the “Class (MPro activity class)” value is listed as 1 (Compounds with IC50 < 10 µM or with a percentage of enzyme inhibition >50% at 10 µM were labelled as ACTIVE).
In the case of `CCOC(=O)c1c(CSc2ccccc2)n(C)c2cc(Br)c(O)c(CN(C)C)c12` [Umifenovir], the “Class (MPro activity class)” value is 0 (compounds with IC50 > 20 μM, percentage inhibition <80% at 20 µM or 50 μM, or percentage enzyme inhibition <50% at 10 µM were labelled as INACTIVE).
For `CCC(C)n1ncn(-c2ccc(N3CCN(c4ccc(OCC5COC(Cn6cncn6)(c6ccc(Cl)cc6Cl)O5)cc4)CC3)cc2)c1=O` (stereo not shown) [Itraconazole], the “Class (MPro activity class)” value is on record as 0 (compounds with IC50 > 20 μM, percentage inhibition <80% at 20 µM or 50 μM, or percentage enzyme inhibition <50% at 10 µM were labelled as INACTIVE).
On to `C=CC(=O)N(c1ccc(C(C)(C)C)cc1)C(C(=O)NCCc1cccc(F)c1)c1cncc(C#N)c1` (stereo not shown) [LON-WEI-babf2c61-3], for which the “Class (MPro activity class)” value is recorded as 1 (Compounds with IC50 < 10 µM or with a percentage of enzyme inhibition >50% at 10 µM were labelled as ACTIVE).
In the case of `O=C(O)[C@H]1C2CCC(CC2)[C@@H]1Nc1nc(-c2c[nH]c3ncc(F)cc23)ncc1F` [Pimodivir], the “Class (MPro activity class)” value is on record as 0 (compounds with IC50 > 20 μM, percentage inhibition <80% at 20 µM or 50 μM, or percentage enzyme inhibition <50% at 10 µM were labelled as INACTIVE).
With `CCCCC(C=O)NC(=O)C(CC(C)C)NC(=O)C(CC(C)C)NC(C)=O` (stereo not drawn) [Calpain inhibitor I] (Ac-Leu-Leu-[Nle]-aldehyde; configuration not given here), the “Class (MPro activity class)” value is listed as 1 (Compounds with IC50 < 10 µM or with a percentage of enzyme inhibition >50% at 10 µM were labelled as ACTIVE).
`O=C(Cc1cccc(Cl)c1)Nn1cnc2ccccc2c1=O` [JAN-GHE-5a013bed-3]: the “Class (MPro activity class)” value was 1 (Compounds with IC50 < 10 µM or with a percentage of enzyme inhibition >50% at 10 µM were labelled as ACTIVE).
For the compound TERIFLUNOMIDE, the “Class (MPro activity class)” value is listed as 0 (compounds with IC50 > 20 μM, percentage inhibition <80% at 20 µM or 50 μM, or percentage enzyme inhibition <50% at 10 µM were labelled as INACTIVE).
Take `CC(C)C(NC(=O)OCc1ccccc1)C(=O)NC(C=O)Cc1ccccc1` (stereo not drawn) [Calpain inhibitor III] (Cbz-Val-Phe-aldehyde; configuration not given here): the “Class (MPro activity class)” value is given as 0 (compounds with IC50 > 20 μM, percentage inhibition <80% at 20 µM or 50 μM, or percentage enzyme inhibition <50% at 10 µM were labelled as INACTIVE).
